{
  "source": "ChEMBL document CHEMBL1131847",
  "about": "“Opsin shift in an aldolase antibody” (Bioorg Med Chem Lett, 1999)",
  "test": "Compound (1.7 x 10E-3 M) was evaluated for the formation of all-trans retinal schiff base with Lysine residue which exhibits significant Opsin shift of naturally occurring visual pigments; Active",
  "assay_type": "functional",
  "note": "The source made the active and inactive calls. No cut-off for these calls is given here.",
  "data": [
    {"smiles": "CC1=C(/C=C/C(C)=C/C=C/C(C)=C/C=O)C(C)(C)CCC1", "values": [
      {"measurement": "Opsin shift activity", "value": "Active"}
    ]}
  ]
}
